From the NIST ThermoML archive (doi:10.1016/j.jct.2019.02.026)

Conditions: Liquid, Falling or rolling sphere viscometry

CCCCCCCCCCCC(=O)OC [methyl dodecanoate]
Conditions	viscosity [mPa·s]
302.7 K, 30290 kPa	3.6
302.94 K, 20178 kPa	3.15
303.04 K, 110 kPa	2.53
303.04 K, 10512 kPa	2.85
312.33 K, 30212 kPa	2.87
312.5 K, 20279 kPa	2.59
312.61 K, 10214 kPa	2.33
312.63 K, 134 kPa	2.09
331.07 K, 29762 kPa	2.04
331.34 K, 20420 kPa	1.86
331.51 K, 10354 kPa	1.67
331.66 K, 132 kPa	1.51
351.24 K, 29906 kPa	1.53
351.57 K, 20226 kPa	1.37
351.74 K, 10090 kPa	1.25
351.81 K, 235 kPa	1.14
361.57 K, 30100 kPa	1.35
361.6 K, 19931 kPa	1.25
361.75 K, 10141 kPa	1.12
362.23 K, 2921 kPa	1.05

CCCCCCC(=O)OC [methyl heptanoate]
Conditions	viscosity [mPa·s]
292.04 K, 30028 kPa	1.5
292.56 K, 25040 kPa	1.42
292.87 K, 19994 kPa	1.35
293.58 K, 14994 kPa	1.28
293.85 K, 9970 kPa	1.22
294.13 K, 4967 kPa	1.17
294.2 K, 107 kPa	1.11
302.83 K, 29961 kPa	1.24
302.93 K, 25017 kPa	1.2
303.02 K, 19985 kPa	1.15
303.05 K, 14993 kPa	1.1
303.08 K, 10026 kPa	1.05
303.12 K, 5011 kPa	1
303.15 K, 102 kPa	0.95
312.49 K, 29986 kPa	1.09
312.57 K, 25001 kPa	1.05
312.62 K, 20047 kPa	1.01
312.65 K, 10009 kPa	0.92
312.66 K, 15001 kPa	0.97
312.77 K, 103 kPa	0.83
312.78 K, 5010 kPa	0.88
322.09 K, 29925 kPa	0.97
322.17 K, 19955 kPa	0.89
322.21 K, 15004 kPa	0.85
322.23 K, 10018 kPa	0.81
322.23 K, 25027 kPa	0.93
322.26 K, 5004 kPa	0.77
322.33 K, 96 kPa	0.73
331.56 K, 30001 kPa	0.87
331.67 K, 19865 kPa	0.8
331.68 K, 25041 kPa	0.83
331.74 K, 15035 kPa	0.76
331.78 K, 5007 kPa	0.69
331.78 K, 9972 kPa	0.72
331.85 K, 99 kPa	0.65
341.48 K, 14961 kPa	0.69
341.67 K, 96 kPa	0.58
341.68 K, 10141 kPa	0.65
341.72 K, 5062 kPa	0.62
341.73 K, 29980 kPa	0.78
341.8 K, 25032 kPa	0.75
341.81 K, 20048 kPa	0.72
351.26 K, 14966 kPa	0.61
351.27 K, 10077 kPa	0.58
351.31 K, 19977 kPa	0.64
351.46 K, 30010 kPa	0.7
351.49 K, 24997 kPa	0.67
361.24 K, 29993 kPa	0.64
361.37 K, 20002 kPa	0.58
361.47 K, 25022 kPa	0.61

CCCCCC(=O)OC [methyl hexanoate]
Conditions	viscosity [mPa·s]
292.99 K, 29973 kPa	1.16
293.48 K, 25055 kPa	1.11
293.98 K, 19999 kPa	1.06
294.34 K, 15024 kPa	1.01
294.63 K, 9980 kPa	0.96
294.75 K, 5079 kPa	0.92
294.86 K, 105 kPa	0.87
302.79 K, 29963 kPa	1.01
302.89 K, 24988 kPa	0.97
302.98 K, 19967 kPa	0.93
303.01 K, 15014 kPa	0.89
303.05 K, 10031 kPa	0.86
303.09 K, 5026 kPa	0.81
303.12 K, 107 kPa	0.77
312.57 K, 29951 kPa	0.89
312.62 K, 24986 kPa	0.85
312.69 K, 15010 kPa	0.78
312.69 K, 20046 kPa	0.82
312.7 K, 4988 kPa	0.71
312.71 K, 10033 kPa	0.75
312.74 K, 103 kPa	0.68
321.96 K, 29975 kPa	0.8
322.08 K, 9972 kPa	0.67
322.12 K, 19979 kPa	0.74
322.14 K, 24972 kPa	0.77
322.29 K, 98 kPa	0.61
322.29 K, 5048 kPa	0.64
322.32 K, 15008 kPa	0.7
331.74 K, 30010 kPa	0.72
331.8 K, 25008 kPa	0.69
331.83 K, 14994 kPa	0.63
331.89 K, 9984 kPa	0.6
331.93 K, 20001 kPa	0.66
341.38 K, 29965 kPa	0.64
341.39 K, 20015 kPa	0.59
341.41 K, 25042 kPa	0.62

CCCCCCCCC(=O)OC [methyl nonanoate]
Conditions	viscosity [mPa·s]
297.15 K, 30034 kPa	2.11
297.5 K, 24979 kPa	2.01
297.81 K, 20011 kPa	1.93
298.08 K, 14977 kPa	1.83
298.42 K, 9955 kPa	1.73
298.77 K, 4957 kPa	1.65
299.19 K, 103 kPa	1.56
302.91 K, 24994 kPa	1.83
302.95 K, 30000 kPa	1.91
303.01 K, 9972 kPa	1.62
303.08 K, 4961 kPa	1.54
303.09 K, 15047 kPa	1.68
303.09 K, 19964 kPa	1.76
303.1 K, 106 kPa	1.46
312.06 K, 29961 kPa	1.65
312.19 K, 25005 kPa	1.57
312.27 K, 19968 kPa	1.5
312.28 K, 9996 kPa	1.38
312.28 K, 14963 kPa	1.43
312.32 K, 4993 kPa	1.32
312.38 K, 99 kPa	1.26
321.26 K, 29949 kPa	1.42
321.36 K, 24985 kPa	1.36
321.49 K, 19988 kPa	1.31
321.56 K, 10020 kPa	1.2
321.6 K, 4982 kPa	1.14
321.61 K, 15017 kPa	1.25
321.64 K, 96 kPa	1.08
330.93 K, 30013 kPa	1.24
330.94 K, 19996 kPa	1.14
331.13 K, 9979 kPa	1.04
331.13 K, 25032 kPa	1.19
331.2 K, 14998 kPa	1.09
331.23 K, 5027 kPa	0.99
331.26 K, 108 kPa	0.94
340.91 K, 19959 kPa	0.99
340.95 K, 25015 kPa	1.04
340.96 K, 30009 kPa	1.08
341.03 K, 4962 kPa	0.86
341.06 K, 10010 kPa	0.91
341.14 K, 15019 kPa	0.94
341.21 K, 96 kPa	0.81
350.73 K, 29961 kPa	0.96
350.74 K, 24964 kPa	0.92
350.81 K, 14959 kPa	0.83
350.86 K, 20020 kPa	0.87
350.88 K, 9984 kPa	0.79
350.95 K, 4985 kPa	0.75
351.04 K, 101 kPa	0.71
360.61 K, 25005 kPa	0.82
360.67 K, 29996 kPa	0.85
360.71 K, 19982 kPa	0.77
360.82 K, 9960 kPa	0.7
360.86 K, 4959 kPa	0.66
360.89 K, 14997 kPa	0.74
360.96 K, 98 kPa	0.62

CCCCCCCC(=O)OC [methyl octanoate]
Conditions	viscosity [mPa·s]
294.65 K, 30063 kPa	1.81
294.79 K, 25004 kPa	1.73
295.08 K, 19995 kPa	1.65
295.22 K, 14978 kPa	1.58
295.3 K, 10017 kPa	1.5
295.48 K, 5004 kPa	1.43
295.62 K, 102 kPa	1.37
303.06 K, 29942 kPa	1.58
303.1 K, 25013 kPa	1.52
303.11 K, 20009 kPa	1.46
303.13 K, 5014 kPa	1.27
303.13 K, 15018 kPa	1.39
303.14 K, 9987 kPa	1.33
303.16 K, 98 kPa	1.21
312.35 K, 29980 kPa	1.37
312.4 K, 25014 kPa	1.32
312.44 K, 10045 kPa	1.15
312.44 K, 20035 kPa	1.27
312.47 K, 15056 kPa	1.21
312.49 K, 5022 kPa	1.1
312.51 K, 101 kPa	1.05
321.71 K, 29998 kPa	1.21
321.89 K, 25073 kPa	1.16
321.97 K, 9991 kPa	1.01
322.02 K, 5045 kPa	0.97
322.06 K, 20031 kPa	1.11
322.09 K, 103 kPa	0.92
322.11 K, 14992 kPa	1.06
331.51 K, 29993 kPa	1.08
331.6 K, 25035 kPa	1.04
331.61 K, 20038 kPa	1
331.62 K, 5013 kPa	0.86
331.72 K, 15022 kPa	0.95
331.73 K, 10033 kPa	0.91
331.87 K, 108 kPa	0.82
341.44 K, 29966 kPa	0.96
341.56 K, 25026 kPa	0.92
341.61 K, 15013 kPa	0.84
341.62 K, 20045 kPa	0.88
341.63 K, 4984 kPa	0.76
341.64 K, 10011 kPa	0.8
341.66 K, 97 kPa	0.72
351.58 K, 103 kPa	0.64
351.6 K, 4996 kPa	0.68
351.62 K, 29959 kPa	0.87
351.64 K, 10072 kPa	0.72
351.65 K, 15006 kPa	0.75
351.7 K, 19996 kPa	0.79
351.78 K, 25021 kPa	0.83
361.2 K, 9990 kPa	0.64
361.23 K, 4990 kPa	0.61
361.41 K, 19980 kPa	0.72
361.44 K, 15037 kPa	0.68
361.45 K, 103 kPa	0.58
361.59 K, 25011 kPa	0.74
361.74 K, 29991 kPa	0.78
